Source: US7192607B2, “Formulations for the prevention or the treatment of diseases affecting mucosae or skin, or for pregnancy prevention, and an applicator for the delivery of topical formulations into mucosal cavities” (Infectio Recherche Inc, priority 2002, dated 2007)

Key:
[1] = system: HSV-2 (6); experiment: Infectivity of HSV-2 (6), acyclovir-resistant strain, pretreated with SLS on Vero cells (PFU); format: cell-based, Herpes simplex virus type-2
Experimental: (§1) The effect of pretreating different strains of herpes viruses with SLS or DS on their viral infectivities to susceptible cells has been evaluated. In brief, cells were seeded in 24 well-plates (Costar, Montreal, QC, Canada). Prior to infection, the virus was either suspended in culture medium or phosphate buffered saline (PBS), or incubated with different concentrations of SLS in PBS for 1 h at 37° C. At confluency, cells were incubated with viral suspensions by centrifuging the plates (750× g for 45 min at 20° C.) to allow virus adsorption. Virus was removed and cell sheets were then overlaid with 0.5 ml of 0.6% agarose Seaplaque (Marine Colloids, Rockland, Md.) prepared in appropriate culture medium. The plates were incubated for 2 days at 37° C. Cells were then fixed with 10% formaldehyde in PBS for 20 min, washed with deionized water and stained with 0.05% methylene blue. Viral infectivity was evaluated via the determination of Plaque Forming Units (PFU).

[2] = system: HIV-1 (strain NL4-3); experiment: Infectivity of HIV-1 (strain NL4-3) pretreated with SLS to 1G5 cells (luciferase activity); format: cell-based; details: virus pretreated with 500 μM SLS for 1 h at 37° C.; FIG. 3
Experimental: The effect of pretreating HIV-1 (strain NL4-3) with SLS on its infectivity to 1G5 cells, a Jurkat E6-1 derivative that harbors two stably integrated constructs made up of the luciferase gene under the control of the HIV-1SF2 LTR, has been also evaluated. In brief, prior to infection, the virus was incubated with either culture medium or 500 μM SLS for 1 h at 37° C. Cells (1×10^5 cells/well) were then incubated with HIV-1 strain NL4-3 (10 ng of p24) for 2 h at 37° C. under a 5% CO2 atmosphere. Afterwards, cells were washed, resuspended in 200 μl of complete culture medium and transferred in a 96-well flat-bottomed tissue culture plate (Microtest III, Falcon; Becton Dickinson, Lincoln Park, N.J.). After a 48 h incubation time at 37° C., cells were lysed, subject to a freeze-thaw cycle and luciferase activity was monitored using a microplate luminometer (MLX; Dynex Technologies, Chantilly, Va.).

[3] = system: rabbit, bovine and human papillomaviruses; details: brief treatment with low concentrations; Howett et al., 1999; cited from earlier work
[4] = system: HIV-1; details: Howett et al., 1999; cited from earlier work
[5] = system: HSV-2; details: Howett et al., 1999; cited from earlier work
[6] = system: HSV-2 (15589); experiment: Infectivity of HSV-2 (15589), foscarnet-resistant strain, pretreated with SLS on Vero cells (PFU); format: cell-based, Herpes simplex virus type-2
Experimental: as §1

[7] = system: HSV-2 (22); experiment: Infectivity of HSV-2 (22) pretreated with SLS on Vero cells (PFU); format: cell-based, Herpes simplex virus type-2
Experimental: as §1

[8] = system: HSV-1 (strain F); experiment: Murine cutaneous infection model, HSV-1 pretreated with SLS or DS; format: in vivo, hairless mice (SKH1)
Experimental: The effect of pretreating HSV-1 (strain F) with SLS on viral infectivity has also been evaluated in a murine cutaneous infection model. Female hairless mice (SKH1; Charles River Breeding Laboratories Inc., St-Constant, QC, Canada), 5–6 weeks old were used throughout this study. […] Mice were anesthetized by intraperitoneal injection of a mixture containing 70 mg/kg ketamine hydrochloride (Rogarsetic* injection USP; Rogar/STB Inc. Montreal, QC, Canada) and 11.5 mg/kg xylazine (Rompun®; Miles Canada Inc., Etobicoke, ON, Canada). The virus was inoculated on the lateral side of the body in the left lumbar skin area. The skin was scratched six times in a crossed-hatched pattern with a 27-gauge needle held vertically. Viral suspension (50 μl) was deposited onto the scarified area and rubbed for 10 to 15 see with a cotton tipped applicator saturated with EMEM+2% FBS or SLS or DS solutions. The scarified area was protected with a corn cushion which was maintained on the mice body with surgical tape. The porous inner wall of the aperture of the corn cushion was impermeabilized with tissue adhesive prior to use to prevent absorption of the drug. The aperture of the corn cushion was also closed with surgical tape. Mice were then returned to their cages and observed twice daily.
In infected untreated mice, no pathological signs of cutaneous infection were visible during the first four days following infection and only the scarified area remained appearent. On day 5, herpetic skin lesions began to appear in some mice in the form of small vesicles distant from the inoculation site. On day 6, almost all untreated mice developed herpetic skin lesions in the form of a 4–5 mm wide band extending from the spine to the ventral midline of the infected dermatome similar to zoster-like infections. Maximal mean lesion score was observed on day 8. Mean lesion score decreased thereafter from day 11 to day 15 because of spontaneous regression of cutaneous lesions in some mice. […] Of prime importance, all mice infected with the virus pretreated with 100 μM SLS survived the infection (data not shown).

[9] = system: HSV-2 (strain 333); experiment: Murine intravaginal infection model, gel formulations applied prior to infection; format: in vivo, Balb/c mice; details: 2.5% SLS alone intravaginally 5 min prior to infection
Experimental: The efficacy of gel formulations to prevent the genital transmission of HSV-2 has been evaluated in a murine intravaginal infection model. In brief, female Balb/c mice aged 4 weeks were used for this study. To increase susceptibility of mice to herpes, 2.5 mg of progesterone (Depo-Provera) was administered subcutaneously to each mouse 7 days prior to and one day prior to inoculation with HSV-2. Anesthetized mice were inoculated with 5 μl of 2.4×10^7 pfu/ml of HSV-2 (strain 333) after swabbing the vagina with a calcium alginate thin tipped swab. To determine the efficacy of the gel formulations to block herpes infection, 15 μl of the gel was delivered with a pipette tip into the vagina a few minutes prior to the inoculation. The pipette tip was moved in and out four times to simulate stirring action of sexual intercourse while being cautious not to cause any bleeding.

[10] = system: Vero cells; experiment: Viability of Vero cells exposed to SLS or DS (MTS test); details: Vero cells exposed 1 h at 37° C. to concentrations as in FIG. 1 and Table 1; data not shown
[11] = system: various HSV-1 and HSV-2 strains; experiment: Infectivity of HSV strains pretreated with SLS on Vero cells, text summary across strains; format: cell-based, Herpes simplex virus; details: pretreatment of the viruses with 50 μM SLS
Experimental: as §1
HSV-1 (strain F) infectivity was reduced to 21% when viral particles were pretreated with 25 μM SLS. The infectivities of all HSV-2 strains were between 50 to 70% following preincubation with 25 μM SLS. A complete loss of the infectivity of all strains tested were obtained following pretreatment of the viruses with 50 μM SLS.

[12] = virus pretreated with 6.25 μM SLS for 1 hour at 37° C.
[13] = virus pretreated with 12.5 μM SLS for 1 hour at 37° C.
[14] = virus pretreated with 25 μM SLS for 1 hour at 37° C.
[15] = virus pretreated with 50 μM SLS for 1 hour at 37° C.

With CCCCCCCCCCCCOS(=O)(=O)[O-].[Na+] [SLS, Sodium lauryl sulfate] the “PFU (% of control) for HSV-2 (6)” value [1, 12] was 105.3 ± 12.4 % of control, the “PFU (% of control) for HSV-2 (6)” value [1, 13] was 82.1 ± 40.7 % of control and the “PFU (% of control) for HSV-2 (6)” value [1, 14] was 51.1 ± 30.1 % of control. The “PFU (% of control) for HSV-2 (6)” value [1, 15] was 0 % of control, the “HIV-1 infectivity to 1G5 cells” value [2] was “almost completely inhibited” and the “effect against rabbit, bovine and human papillomaviruses (non-enveloped viruses)” value [3] was “effective”. The “inactivation of HIV-1” value [4] was “potent inactivator”, the “inactivation of HSV-2” value [5] was “potent inactivator” and the “PFU (% of control) for HSV-2 (15589)” value [6, 12] was 108.7 ± 22.2 % of control. For the same compound, the “PFU (% of control) for HSV-2 (15589)” value [6, 13] was 115.1 ± 17.5 % of control, the “PFU (% of control) for HSV-2 (15589)” value [6, 14] was 59.0 ± 4.0 % of control and the “PFU (% of control) for HSV-2 (15589)” value [6, 15] was 0 % of control. The “PFU (% of control) for HSV-2 (22)” value [7, 12] was 128.0 ± 18.5 % of control, the “PFU (% of control) for HSV-2 (22)” value [7, 13] was 103.4 ± 14.9 % of control and the “PFU (% of control) for HSV-2 (22)” value [7, 14] was 63.8 ± 11.9 % of control. The “PFU (% of control) for HSV-2 (22)” value [7, 15] was 0 % of control, the cutaneous lesions ([8]; virus pretreated with 100 μM SLS for 1 h at 37° C.) was “did not demonstrate any signs of cutaneous lesions” and the “mice that survived the infection” value ([8]; virus pretreated with 100 μM SLS, data not shown) was “all”. The mean lesion score ([8]; virus pretreated with 6.25 and 25 μM SLS for 1 h at 37° C.) was “did not demonstrate a significant reduction”, the “mice that survived the infection” value [9] was “all” and the signs of illness ([9]; up to 16 days post-infection) was “did not demonstrate any sign of illness”. The “cytotoxicity (viability, MTS test)” value [10] was “No signs of cytotoxicity” and the “infectivity of all strains tested” value [11] was “complete loss”.
